Assays:
Type in all cases: cell-based
[1] = tested on: human colon carcinoma cell line HCT116; test: Caspase cascade activation (EC50), HCT116; details: Homo sapiens, HCT-116; HCT116 cells; caspase cascade activation; read-out: caspase potency (EC50) HCT116
Experimental: (§1) Human breast cancer cell lines T-47D, human hepatocellular carcinoma cell line SNU398, human colon carcinoma cell line HCT116, human cancer cell line H1299, human Burkitt's lymphoma cell line Namalwa, human lymphoma cell line Raji, and human B cell lymphoblastoid cell line Ramos were grown according to media component mixtures designated by American Type Culture Collection+10% FCS (Invitrogen Corporation), in a 5% CO2-95% humidity incubator at 37° C. T-47D and H1299 cells were maintained at a cell density between 50 and 80% confluency at a cell density of 0.1 to 0.6×10^6 cells/mL. Cells were harvested at 600×g and resuspended at 0.65×10^6 cells/mL into appropriate media+10% FCS. An aliquot of 22.5 μL of cells was added to a well of a 384-well microtiter plate containing 2.5 μL of a 10% DMSO in RPMI-1640 media solution containing 0.16 to 100 μM of 3-(2-chlorophenyl)-6-(3,4-methylenedioxyphenyl)-7H-[1,2,4]triazolo[3,4-b][1,3,4]thiadiazine or other test compound (0.016 to 10 μM final). An aliquot of 22.5 μL of cells was added to a well of a 384-well microtiter plate containing 2.5 μL of a 10% DMSO in RPMI-1640 media solution without test compound as the control sample. The samples were mixed by agitation and then incubated at 37° C. for 48 h in a 5% CO2-95% humidity incubator. After incubation, the samples were removed from the incubator and 25 μL of a solution containing 14 μM of N—(Ac-DEVD)-N′-ethoxycarbonyl-R110 (SEQ ID No.:1) fluorogenic substrate (Cytovia, Inc.; WO99/18856), 20% sucrose (Sigma), 20 mM DTT (Sigma), 200 mM NaCl (Sigma), 40 mM Na PIPES buffer pH 7.2 (Sigma), and 500 μg/mL lysolecithin (Calbiochem) was added. The samples were mixed by agitation and incubated at room temperature. Using a fluorescent plate reader (Model SPECTRAfluor Plus, Tecan), an initial reading (T=0) was made approximately 1-2 min after addition of the substrate solution, employing excitation at 485 nm and emission at 530 nm, to determine the background fluorescence of the control sample. After the 3 h incubation, the samples were read for fluorescence as above (T=3 h). Calculation: The Relative Fluorescence Unit values (RFU) were used to calculate the sample readings as follows: RFU(T=3H)−Control RFU(T=0)=Net RFU(T=3h) The activity of caspase cascade activation was determined by the ratio of the net RFU value for 3-(2-chlorophenyl)-6-(3,4-methylenedioxyphenyl)-7H-[1,2,4]triazolo[3,4-b][1,3,4]thiadiazine (Example P) or other test compound to that of control samples. The EC50 (nM) was determined by a sigmoidal dose-response calculation (Prism 3.0, GraphPad Software Inc.).

[2] = tested on: human breast cancer cell line T-47D; test: Caspase cascade activation (EC50), T-47D; details: Homo sapiens; T47D cells; caspase cascade activation; read-out: caspase potency (EC50) T47D
Experimental: as §1

[3] = tested on: human B cell lymphoblastoid cell line Ramos; test: Caspase cascade activation (EC50), Ramos; details: Homo sapiens, RAMOS cells, read-out: caspase potency (EC50) RAMOS
Experimental: as §1

[4] = tested on: human lymphoma cell line Raji; test: Caspase cascade activation (EC50), Raji; details: Homo sapiens, RAJI cells, read-out: caspase potency (EC50) RAJI
Experimental: as §1

[5] = tested on: human Burkitt's lymphoma cell line Namalwa; test: Caspase cascade activation (EC50), Namalwa; details: Homo sapiens, Burkitts lymphoma cell; Namalwa cells; caspase cascade activation; read-out: caspase potency (EC50) Namalwa
Experimental: as §1

[6] = tested on: human hepatocellular carcinoma cell line SNU398; test: Caspase cascade activation (EC50), SNU398; details: Homo sapiens, SNU-398; SNU398 cells; caspase cascade activation; read-out: caspase potency (EC50) SNU398
Experimental: as §1

| Structure (SMILES) | EC50 [1] [nM] | EC50 [2] [nM] | EC50 [3] [nM] | EC50 [4] [nM] | EC50 [5] [nM] | EC50 [6] [nM] |
| --- | --- | --- | --- | --- | --- | --- |
| c1cc2c(cc1C1=Nn3c(nnc3C3CCCCC3)SC1)OCO2 [Example M2, 3-Cyclohexyl-6-(3,4-methylenedioxyphenyl)-7H-[1,2,4]triazolo[3,4-b][1,3,4]thiadiazine] | > 10000 | 4330 | 5150 | 5190 | 5240 | 4770 |
| COc1ccc(C2=Nn3c(nnc3-c3cccc(OC(C)C)c3)SC2)cc1 [Example K2, 3-(3-Isopropyloxyphenyl)-6-(4-methoxyphenyl)-7H-[1,2,4]triazolo[3,4-b][1,3,4]thiadiazine] | > 10000 | 5470 | 5840 | 5470 | 5530 | 5560 |
| COc1ccc(-c2nnc3n2N=C(c2ccc4c(c2)OCO4)CS3)cc1OC [Example O1, 3-(3,4-Dimethoxyphenyl)-6-(3,4-methylenedioxyphenyl)-7H-[1,2,4]triazolo[3,4-b][1,3,4]thiadiazine] | > 10000 | 542 | 514 | 540 | – | 501 |
| COc1cc(-c2nnc3n2N=C(c2ccc(O)c(O)c2)CS3)cc(OC)c1OC [Example Z1, 3-(3,4,5-Trimethoxyphenyl)-6-(3,4-dihydroxyphenyl)-7H-[1,2,4]triazolo[3,4-b][1,3,4]thiadiazine] | 240 | 284 | 219 | 176 | 200 | 101 |
| COc1cc(-c2nnc3n2N=C(c2ccc(Cl)cc2)CS3)cc(OC)c1OC [Example W1, 3-(3,4,5-Trimethoxyphenyl)-6-(4-chlorophenyl)-7H-[1,2,4]triazolo[3,4-b][1,3,4]thiadiazine] | 130 | 276 | 78 | 72 | 153 | 111 |
| COc1ccc(-c2nnc3n2N=C(c2ccc(NC(C)=O)cc2)CS3)cc1OC [Example 32, 6-(4-Acetamidophenyl)-3-(3,4-dimethoxyphenyl)-7H-[1,2,4]triazolo[3,4-b][1,3,4]thiadiazine] | – | – | 4860 | > 10000 | > 10000 | – |
| COc1ccccc1-c1nnc2n1N=C(c1ccc([N+](=O)[O-])cc1)CS2 [Example X2] | – | – | 2580 | 4860 | 2580 | – |
| CCN(CC)c1ccc(C2=Nn3c(nnc3-c3ccc(OC)c(OC)c3)SC2)cc1 [Example 22, 6-(4-Diethylaminophenyl)-3-(3,4-dimethoxyphenyl)-7H-[1,2,4]triazolo[3,4-b][1,3,4]thiadiazine] | 188 | 534 | 258 | 270 | 214 | 122 |
| COc1ccc(C2=Nn3c(nnc3-c3cc(Cl)c(OC)c(OC)c3)SC2)cc1 [Example 5, 3-(3-Chloro-4,5-dimethoxyphenyl)-6-(4-methoxyphenyl)-7H-[1,2,4]triazolo[3,4-b][1,3,4]thiadiazine] | – | – | 78 | 133 | 71 | – |
| COc1cc(-c2nnc3n2N=C(c2ccc(F)cc2)CS3)cc(OC)c1OC [Example V1, 3-(3,4,5-Trimethoxyphenyl)-6-(4-fluorophenyl)-7H-[1,2,4]triazolo[3,4-b][1,3,4]thiadiazine] | > 10000 | 1320 | 463 | 622 | 321 | 1040 |
| COc1ccc(C2=Nn3c(nnc3-c3ccc(F)cc3)SC2)cc1 [Example S2] | 700 | 1660 | 339 | 569 | 546 | 271 |

Reference: patent publication US20080045514A1 (Cytovia, Inc., priority 2006, published 2008)
